Measured values: ChEMBL document CHEMBL1201862, “PubChem BioAssay data set” (2004)
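In this assay, cells in 96-well plates receive the compound at five concentrations for 48 hours. Endpoints are linearly interpolated between the surrounding concentrations. GI50 is the concentration that inhibits growth by half.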 Activity calls are given as the source filed them. Rule as the data show it: active = GI50 up to about 1.1 µM and inactive = higher.

Assays:
Test in all cases: growth of human tumour cells (NCI), 48 h
NCI/ADR-RES = test system: NCI/ADR-RES
MCF7 = test system: MCF7
DU-145 = test system: DU-145
OVCAR-4 = test system: OVCAR-4
OVCAR-5 = test system: OVCAR-5
RPMI-8226 = test system: RPMI-8226
KM12 = test system: KM12
MOLT-4 = test system: MOLT-4
HL-60 = test system: HL-60
NCI-H522 = test system: NCI-H522
RXF 393 = test system: RXF 393
786-0 = test system: 786-0
BT-549 = test system: BT-549
MDA-MB-231 = test system: MDA-MB-231
SW-620 = test system: SW-620
SK-MEL-28 = test system: SK-MEL-28

Structure (SMILES) | GI50 (NCI/ADR-RES) | GI50 (MCF7) | GI50 (DU-145) | GI50 (OVCAR-4) | GI50 (OVCAR-5) | GI50 (RPMI-8226) | GI50 (KM12) | GI50 (MOLT-4) | GI50 (HL-60) | GI50 (NCI-H522) | GI50 (RXF 393) | GI50 (786-0) | GI50 (BT-549) | GI50 (MDA-MB-231) | GI50 (SW-620) | GI50 (SK-MEL-28)
Cc1ccc(C(=O)C2=CN=C3C(=O)N(c4ccccc4)N(C)C3(C)C2=N)cc1 (stereo not drawn) | > 100 µM (inactive) | > 100 µM (inactive) | > 100 µM (inactive) | > 100 µM (inactive) | > 100 µM (inactive) | > 100 µM (inactive) | > 100 µM (inactive) | > 100 µM (inactive) | > 100 µM (inactive) | > 100 µM (inactive) | > 100 µM (inactive) | > 100 µM (inactive) | > 100 µM (inactive) | > 100 µM (inactive) | > 100 µM (inactive) | –
N#Cc1c(Cl)nc2ccccc2c1N=[N+]=[N-] | 9.33 µM (inactive) | 4.56 µM (inactive) | 14.9 µM (inactive) | 1.91 µM (inactive) | 6.61 µM (inactive) | 2.11 µM (inactive) | 6.4 µM (inactive) | 1.08 µM (active) | 1.8 µM (inactive) | 1.99 µM (inactive) | 1.44 µM (inactive) | 2.8 µM (inactive) | 1.8 µM (inactive) | 1.89 µM (inactive) | 1.73 µM (inactive) | 2.95 µM (inactive)
O=c1[nH]c(-c2ccccc2)nc2c1sc1nc3ccccc3n12 | > 100 µM (inactive) | > 100 µM (inactive) | > 100 µM (inactive) | > 81.3 µM (inactive) | > 100 µM (inactive) | 1.52 µM (inactive) | > 92.7 µM (inactive) | 16.1 µM (inactive) | > 100 µM (inactive) | > 100 µM (inactive) | > 100 µM (inactive) | > 100 µM (inactive) | > 61 µM (inactive) | > 100 µM (inactive) | > 100 µM (inactive) | > 100 µM (inactive)
NS(=O)(=O)c1ccc(NC(=O)Nc2cccc3ccccc23)cc1 | 46 µM (inactive) | 31.2 µM (inactive) | 23.8 µM (inactive) | 42.2 µM (inactive) | > 100 µM (inactive) | > 100 µM (inactive) | > 100 µM (inactive) | > 100 µM (inactive) | > 100 µM (inactive) | 19.4 µM (inactive) | 30.5 µM (inactive) | 19 µM (inactive) | 87.1 µM (inactive) | 19.4 µM (inactive) | 44.8 µM (inactive) | 39.4 µM (inactive)
Cn1c(N)c(Cc2ccc(Cl)cc2)c(=O)[nH]c1=O | > 100 µM (inactive) | > 100 µM (inactive) | > 100 µM (inactive) | – | > 100 µM (inactive) | > 100 µM (inactive) | > 100 µM (inactive) | > 100 µM (inactive) | > 100 µM (inactive) | > 100 µM (inactive) | > 100 µM (inactive) | > 100 µM (inactive) | > 100 µM (inactive) | > 100 µM (inactive) | > 100 µM (inactive) | > 100 µM (inactive)
O=[N+]([O-])c1ccc2nc(=S)[nH]n2c1 | > 100 µM (inactive) | > 100 µM (inactive) | > 100 µM (inactive) | > 100 µM (inactive) | > 100 µM (inactive) | > 100 µM (inactive) | > 100 µM (inactive) | > 100 µM (inactive) | > 100 µM (inactive) | > 100 µM (inactive) | > 100 µM (inactive) | > 100 µM (inactive) | > 100 µM (inactive) | > 100 µM (inactive) | > 100 µM (inactive) | –
O=C(NCc1cccnc1)NCc1cccnc1 | > 100 µM (inactive) | > 100 µM (inactive) | > 100 µM (inactive) | > 100 µM (inactive) | > 100 µM (inactive) | > 100 µM (inactive) | > 100 µM (inactive) | – | > 100 µM (inactive) | > 100 µM (inactive) | > 100 µM (inactive) | > 100 µM (inactive) | > 100 µM (inactive) | > 100 µM (inactive) | > 100 µM (inactive) | > 100 µM (inactive)
COC(=O)[C@H](Cc1c[nH]c2ccccc12)NC(=O)c1ccc(CNC(=O)/C(C)=C/c2ccccc2)cc1 | 52.8 µM (inactive) | 29.2 µM (inactive) | 32.5 µM (inactive) | 30.3 µM (inactive) | > 100 µM (inactive) | 46 µM (inactive) | 87.7 µM (inactive) | 21.5 µM (inactive) | – | 14.6 µM (inactive) | < 0.01 µM (active) | > 100 µM (inactive) | 28.1 µM (inactive) | 17.8 µM (inactive) | > 100 µM (inactive) | 18.2 µM (inactive)
Nc1ccn(C2CCC(CO)O2)c(=S)n1 (stereo not drawn) | > 100 µM (inactive) | > 100 µM (inactive) | > 100 µM (inactive) | > 10 µM (inactive) | > 100 µM (inactive) | 35.8 µM (inactive) | > 100 µM (inactive) | > 100 µM (inactive) | > 100 µM (inactive) | > 100 µM (inactive) | > 100 µM (inactive) | > 100 µM (inactive) | > 100 µM (inactive) | > 100 µM (inactive) | > 100 µM (inactive) | –
